Broadly, the IC50 is the concentration needed to halve the response being measured.

The assay deals with Acetylcholinesterase (Homo sapiens, UniProt P22303).
Chain of Acetylcholinesterase (P22303 whole entry): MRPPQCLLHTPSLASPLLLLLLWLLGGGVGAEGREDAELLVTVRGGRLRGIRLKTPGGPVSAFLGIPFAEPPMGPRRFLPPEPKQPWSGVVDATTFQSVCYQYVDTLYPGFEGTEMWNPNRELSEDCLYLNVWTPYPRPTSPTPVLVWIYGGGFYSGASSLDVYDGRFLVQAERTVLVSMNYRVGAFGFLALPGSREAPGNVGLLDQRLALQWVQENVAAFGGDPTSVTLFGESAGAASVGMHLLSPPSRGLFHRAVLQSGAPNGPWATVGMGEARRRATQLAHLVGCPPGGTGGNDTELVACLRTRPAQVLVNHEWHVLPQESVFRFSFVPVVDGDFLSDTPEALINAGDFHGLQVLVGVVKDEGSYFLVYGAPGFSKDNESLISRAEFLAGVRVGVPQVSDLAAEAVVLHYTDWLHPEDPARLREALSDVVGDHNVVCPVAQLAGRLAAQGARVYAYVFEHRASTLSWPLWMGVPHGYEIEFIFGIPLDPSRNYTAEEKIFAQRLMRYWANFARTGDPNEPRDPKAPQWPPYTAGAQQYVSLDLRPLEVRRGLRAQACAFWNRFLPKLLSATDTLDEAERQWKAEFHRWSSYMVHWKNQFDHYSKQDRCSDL
For `COc1cc2c(cc1OC)C(O)C(CC1CCN(c3ccccc3)CC1)C2` (configuration not stated), 0.3 µM corresponded to half-maximal inhibition (IC50).

In the case of `CNC(=O)Oc1cccc(CN(C)CCCOc2ccc3c(c2)O/C(=C\c2cc(O)c(O)c(O)c2)C3=O)c1`, the concentration for half-maximal inhibition (IC50) turned out to be 0.00299 µM.

`c1ccc2c(NCCCCCCNc3c4c(nc5ncccc35)CCCCC4)c3c(nc2c1)CCCCC3` displayed an IC50 of 0.0025 µM.

For the molecule `O=C1c2ccccc2CCC1CC1CCN(c2ccccc2)CC1` (configuration not stated), it took 2.1 µM to reach half-maximal inhibition (IC50). This IC50 is about 840-fold higher than that of the molecule before.

As for `O=C1c2ccccc2CCCC1CC1CCN(c2ccccc2)CC1` (configuration not stated), half-maximal inhibition (IC50) required 15 µM.

Molecule `COc1cc2c(cc1OC)C(=O)C(CC1CCN(c3ccccc3)CC1)C2` (configuration not stated) gave an IC50 of 0.0057 µM.

`O=C(CCc1c[nH]c2ccccc12)NCCCCCCNc1c2c(nc3ccccc13)CCCC2` yielded a 50% inhibitory concentration (IC50) of 2e-05 µM.

In turn, `O=C(CCc1c[nH]c2ccccc12)NCCCCCCCNc1c2c(nc3ccccc13)CCCC2` displayed an IC50 of 6e-05 µM.

Molecule `Cc1ccc2nc3c(c(Nc4ccccc4)c2c1)CCCC3` came in with an IC50 of 3.7 µM.

`O=C(CCc1c[nH]c2ccccc12)NCCCCCCCCCNc1c2c(nc3cc(Cl)ccc13)CCCC2` gave an IC50 of […].

`O=C(CCc1c[nH]c2ccccc12)NCCCCCCCCCCNc1c2c(nc3cc(Cl)ccc13)CCCC2` returned an IC50 of 0.0219 µM.

With `Cc1ccc2c(Nc3ccccc3)c3c(nc2c1)CCCC3`, half-maximal inhibition (IC50) was put at 0.75 µM.

In the case of `Clc1ccc2c(Nc3ccccc3)c3c(nc2c1)CCCC3`, the IC50 was 0.17 µM.

`Nc1c2c(nc3ccccc13)-c1cc(Br)ccc1CC2` yielded an IC50 of 144 µM.

In turn, `O=[N+]([O-])c1ccc2nc3c(c(Nc4ccccc4)c2c1)CCCC3` came in with an IC50 of 1.6 µM. This IC50 is about 90-fold lower than that of the molecule before.

Consider `O=[N+]([O-])c1ccc2c(Nc3ccccc3)c3c(nc2c1)CCCC3`, for which the IC50 was 4.8 µM. This IC50 is about 3-fold higher than that of the molecule before.

Molecule `O=C1c2ccccc2CC1CC1CCN(c2ccccc2)CC1` (configuration not stated) came in with an IC50 of 0.15 µM.

For `COc1cc2c(cc1OC)CC(CC1CCN(c3ccccc3)CC1)=C2`, half-maximal inhibition (IC50) was put at 4.4 µM.

Consider `CNC(=O)Oc1cccc(CN(C)CCCCCCCOc2ccc3c(c2)O/C(=C\c2cc(O)c(O)c(O)c2)C3=O)c1`, for which the IC50 was determined as 0.00052 µM.

As for `CNC(=O)Oc1cccc(CN(C)CCCCCCCOc2ccc3c(c2)C/C(=C\c2cc(O)c(O)c(O)c2)C3=O)c1`, 0.0018 µM corresponded to half-maximal inhibition (IC50). Compared with the last molecule, the IC50 is about 3.5-fold higher.

With `CNC(=O)Oc1cccc(CN(C)CCCCCCCOc2ccc3c(c2)OC/C(=C/c2cc(O)c(O)c(O)c2)C3=O)c1`, the IC50 stood at 0.00981 µM.

`CNC(=O)Oc1cccc(CN(C)CCCCCCCOc2ccc3c(c2)CC/C(=C/c2cc(O)c(O)c(O)c2)C3=O)c1` yielded an IC50 of 0.00494 µM. Against the preceding molecule, the IC50 is about 2-fold lower.

Consider `CC1Cc2c(nc3ccccc3c2N)C1(C)O` (configuration not stated), for which the IC50 was found to be 134 µM. This IC50 lies about 27000-fold higher than the previous one.

Turning to `Nc1c2c(nc3ccccc13)-c1ccccc1NCC2`, 69.4 µM corresponded to half-maximal inhibition (IC50).

As to `Nc1c2ccccc2nc2c1cnc1cc(Cl)ccc12`, the IC50 was 1000 µM.

The molecule `COc1ccc2c(c1)CCc1c-2nc2ccccc2c1N` came in with an IC50 of 47 µM.

Regarding `Nc1c2c(nc3ccccc13)CCCc1ccccc1-2`, half-maximal inhibition (IC50) was put at 38.2 µM. This IC50 and that of the molecule before are within 1.5-fold of each other.

Regarding `CCCCC1=C(C)Cc2c1nc1ccccc1c2N`, the midpoint of inhibition, the IC50, lay at 25 µM.

`CC1=C(C)c2nc3ccccc3c(N)c2C1`: the midpoint of inhibition, the IC50, lay at 3.5 µM. This IC50 is about 7.1-fold lower than that of the molecule before.

`CCCCC1(O)c2nc3ccccc3c(N)c2CC1C` (configuration not stated) came in with an IC50 of 91 µM. This IC50 is about 26-fold higher than that of the molecule before.

Take `COc1ccc2c(c1)CCCc1c-2nc2ccccc2c1N`: half-maximal inhibition (IC50) required 68.8 µM.

For the molecule `N#Cc1ccc2[nH]cc(CCC(=O)NCCCCCCNc3c4c(nc5cc(Cl)ccc35)CCCC4)c2c1`, the IC50 was found to be 0.0007 µM.

The molecule `O=C(Cc1c[nH]c2ccccc12)NCCCCCCCNc1c2c(nc3cc(Cl)ccc13)CCCC2` returned a half-inhibitory concentration (IC50) of 0.0002 µM. This IC50 lies about 3.5-fold lower than the previous one.

Turning to `O=C(NCCCCCCCCNc1c2c(nc3cc(Cl)ccc13)CCCC2)c1c[nH]c2ccccc12`, half-maximal inhibition (IC50) was put at 0.046 µM.

Take `O=C(CCc1c[nH]c2ccccc12)NCCCCCNc1c2c(nc3ccccc13)CCCC2`: the IC50 amounted to 0.07 µM.

The molecule `O=C(/C=C/c1c[nH]c2ccccc12)NCCCCCCNc1c2c(nc3cc(Cl)ccc13)CCCC2` showed an IC50 of 0.018 µM.

In the case of `CN(CCCNC(=O)CCc1c[nH]c2ccccc12)CCCNc1c2c(nc3ccccc13)CCCC2`, 0.147 µM corresponded to half-maximal inhibition (IC50). Against the preceding molecule, the IC50 is about 8.2-fold higher.

As to `O=C(NCCCCCCNc1c2c(nc3cc(Cl)ccc13)CCCC2)c1c[nH]c2ccccc12`, the IC50 worked out at 0.033 µM. This IC50 lies about 4.5-fold lower than the previous one.

As to `O=C(CCCc1c[nH]c2ccccc12)NCCCCCNc1c2c(nc3cc(Cl)ccc13)CCCC2`, the IC50 was 0.0003 µM.

`O=C(Cc1c[nH]c2ccc(Br)cc12)NCCCCCCCNc1c2c(nc3cc(Cl)ccc13)CCCC2` returned an IC50 of 0.0006 µM.

The molecule `Clc1ccc2c(NCCCCCCCNc3c4c(nc5cc(Cl)ccc35)CCCC4)c3c(nc2c1)CCCC3` registered an IC50 of 7e-05 µM. This IC50 is about 8.6-fold lower than that of the molecule before.

The molecule `Fc1ccc2c(NCCCCCCCCNc3c4c(nc5cc(F)ccc35)CCCC4)c3c(nc2c1)CCCC3` registered an IC50 of 0.0007 µM.

For `Nc1c2c(nc3ccccc13)-c1ccccc1NCCC2`, the IC50 amounted to 391 µM.

`Nc1c2c(nc3ccccc13)CCCCC2`: the IC50 was determined as 0.039 µM.

As for `CC12CCC(c3c1nc1ccccc1c3N)C2(C)C` (configuration not stated), half-maximal inhibition (IC50) was put at 110 µM.

Take `Nc1c2c(nc3ccccc13)-c1ccccc1CCC2`: it took 166 µM to reach half-maximal inhibition (IC50).

In turn, `CNC(=O)Oc1cccc(CN(C)CCCCCCCOc2ccc3c(c2)O/C(=C\c2cccc4ccccc24)C3=O)c1` returned an IC50 of 0.00209 µM.

`CN(CCCNC(=O)CCc1c[nH]c2ccccc12)CCCNc1c2c(nc3cc(Cl)ccc13)CCCC2`: the 50% inhibitory concentration (IC50) amounted to 0.0029 µM.

As to `O=C(NCCCCCNc1c2c(nc3cc(Cl)ccc13)CCCC2)c1c[nH]c2ccccc12`, the IC50 turned out to be 0.18 µM.

`O=C(NCCCCCCCNc1c2c(nc3cc(Cl)ccc13)CCCC2)c1c[nH]c2ccccc12` yielded a half-inhibitory concentration (IC50) of 0.036 µM.

`O=C(CCc1c[nH]c2ccccc12)NCCCCCCCCNc1c2c(nc3cc(Cl)ccc13)CCCC2` displayed an IC50 of 0.0005 µM.

`Cn1cc(C(=O)NCCCCCCCNc2c3c(nc4cc(Cl)ccc24)CCCC3)c2ccccc21` registered an IC50 of 0.0109 µM.

`O=C(CCCc1c[nH]c2ccccc12)NCCCCCCNc1c2c(nc3cc(Cl)ccc13)CCCC2`: half-maximal inhibition (IC50) required 0.0005 µM.

The molecule `Nc1c2c(nc3ccccc13)-c1ccccc1C2` gave an IC50 of 0.35 µM.

In turn, `Clc1ccc2c(NCCCCCCNc3c4c(nc5cc(Cl)ccc35)CCCC4)c3c(nc2c1)CCCC3` registered an IC50 of 0.0006 µM. Compared with the last molecule, the IC50 is about 580-fold lower.

`c1ccc2c(NCCCCCCNc3c4c(nc5ccccc35)CCCC4)c3c(nc2c1)CCCC3` came in with an IC50 of 0.0014 µM. Against the preceding molecule, the IC50 is about 2.3-fold higher.

For the molecule `Fc1ccc2c(NCCCCCCCNc3c4c(nc5cc(F)ccc35)CCCC4)c3c(nc2c1)CCCC3`, the midpoint of inhibition, the IC50, lay at 0.0006 µM. This IC50 lies about 2.3-fold lower than the previous one.

Consider `Fc1ccc2c(NCCCCCCNc3c4c(nc5cc(F)ccc35)CCCC4)c3c(nc2c1)CCCC3`, for which the IC50 was 0.0009 µM.

`c1ccc2c(NCCCCCCCNc3c4c(nc5ccccc35)CCC4)c3c(nc2c1)CCC3` returned an IC50 of 0.075 µM.

`c1cnc2nc3c(c(NCCCCCCCNc4c5c(nc6ncccc46)CCCC5)c2c1)CCCC3` came in with a half-inhibitory concentration (IC50) of 0.0013 µM.

Molecule `Nc1c2c(nc3ccccc13)-c1ccccc1CC2` showed an IC50 of 37 µM.

`CC(C)c1cc(-c2ccccc2)nnc1NCCC1CCN(Cc2ccccc2)CC1` displayed an IC50 of 0.43 µM.

As to `CCc1cc(=NCCC2CCN(Cc3ccccc3)CC2)[nH]nc1-c1ccccc1`, half-maximal inhibition (IC50) was put at 0.027 µM.

`Cc1cc(=NCCC2CCN(Cc3ccccc3)CC2)[nH]nc1-c1ccccc1` returned an IC50 of 0.021 µM.

On to `CCCc1cc(=NCCC2CCN(Cc3ccccc3)CC2)[nH]nc1-c1ccccc1`, for which the IC50 was found to be 0.061 µM.

For `c1ccc(CN2CCC(CCN=c3[nH]nc(-c4ccccc4)c4ccccc34)CC2)cc1`, the IC50 is 0.44 µM. This IC50 is about 7.2-fold higher than that of the molecule before.

`Cc1cc(-c2ccccc2)nnc1NCCC1CCN(Cc2ccccc2)CC1` showed an IC50 of 0.32 µM.

(Values after ChEMBL document CHEMBL1155460, “Prediction of acetylcholinesterase inhibitors and characterization of correlative molecular descriptors by machine learning methods” (Eur J Med Chem, 2010).)
